Publication PMC11544713, “The Application of Untargeted Metabolomic Approaches for the Search of Common Bioavailable Metabolites in Human Plasma Samples from Lippia citriodora and Olea europaea Extracts” (Journal of Agricultural and Food Chemistry, 2024)

Key:
[1] = Acute intervention: nutrikinetics of plasma metabolites after ingestion of L. citriodora extract (untargeted HPLC-ESI-QTOF-MS)
Description: (§1) A total of 25 healthy individuals participated, with an average age of 27 ± 9 years and a mean body mass index (BMI) of 23 ± 3 kg/m^2. None of the participants were taking any medications or nutritional supplements nor did they have any chronic diseases or gastrointestinal issues. The sample size was established based on findings from previous bioavailability research.[14] All participants provided informed consent before participating in the study.
(§2) The intervention study was carried out at Miguel Hernández University. Following an overnight fast, the volunteers were categorized into the subsequent groups: a subgroup to evaluate the LC leaf extract (n = 8), another for the OE leaf extract (n = 8), and the placebo subgroup (n = 9). This was a double-blind study, in which sample collection and treatment were carried out uniformly across all three subgroups.
(§3) Water was provided ad libitum. Prior to the ingestion of the capsule, a nurse inserted a cannula into the ulnar vein of each volunteer’s nondominant arm, and blood samples were drawn into EDTA-coated tubes at baseline (t = 0). Blood samples were then collected at 0.5, 1, 2, 4, 6, 8, and 10 h after the consumption of the 500 mg capsule. Plasma was separated through centrifugation (10 min at 3000 rpm and 4 °C) and stored at −80 °C until further analysis.
(§4) Plasma samples were initially treated using a mixture of methanol and ethanol (50:50; v:v) to remove proteins, following previously reported protocols.[19] During the sample treatment, pooled quality controls (pooled-QC) were prepared by combining equal aliquots from each sample. These QC samples were processed by using the same protocols as the experimental biological samples.
(§5) A reversed-phase analytical C18 column (Agilent Zorbax Eclipse Plus, 1.8 μm, 4.6 × 150 mm^2) with a protective cartridge with the same packing was used. MS data were acquired in negative ionization mode, operating in full scan across a mass-to-charge ratio (m/z) range of 50–1700. The analytical method used was adapted from that described by Villegas-Aguilar et al.[19]
(§6) Metabolite nutrikinetics were studied using PKSolver, an add-in program for pharmacokinetic data analysis in Microsoft Excel. The time to reach the maximum concentration (observed Tmax) was calculated for each significant metabolite. As an untargeted metabolomic approach was used to detect the circulating metabolites, these were not quantified. Therefore, the maximum concentration (Cmax) and area under the curve (AUC) parameters were calculated in a relative way by using the deconvoluted chromatographic areas. […] Statistical differences were determined by unpaired t tests. All p values less than 0.05 were considered statistically significant.

[2] = Acute intervention: nutrikinetics of plasma metabolites after ingestion of O. europaea extract (untargeted HPLC-ESI-QTOF-MS); details: for mean chromatographic area in plasma, T0.5: 0.5 h after O. europaea extract; for mean chromatographic area in plasma, T1: 1 h after O. europaea extract; for mean chromatographic area in plasma, T2: 2 h after O. europaea extract; for mean chromatographic area in plasma, T4: 4 h after O. europaea extract; for mean chromatographic area in plasma, T6: 6 h after O. europaea extract; for mean chromatographic area in plasma, T8: 8 h after O. europaea extract; for mean chromatographic area in plasma, T10: 10 h after O. europaea extract; for Cmax: relative maximum plasma level / observed Tmax: time required to reach Cmax: human plasma, 500 mg capsule of O. europaea (OE) extract, oral, mean ± SD
Description: as §1, §2, §3, §4, §5, §6

[3] = 0.5 h after L. citriodora extract
[4] = 1 h after L. citriodora extract
[5] = 2 h after L. citriodora extract
[6] = 4 h after L. citriodora extract
[7] = 6 h after L. citriodora extract
[8] = 8 h after L. citriodora extract
[9] = 10 h after L. citriodora extract
[10] = human plasma, 500 mg capsule of L. citriodora (LC) extract, oral, mean ± SD

Row | Compound | mean chromatographic area in plasma, T0.5 [1, 3] | mean chromatographic area in plasma, T1 [1, 4] | mean chromatographic area in plasma, T2 [1, 5] | mean chromatographic area in plasma, T4 [1, 6] | mean chromatographic area in plasma, T6 [1, 7] | mean chromatographic area in plasma, T8 [1, 8] | mean chromatographic area in plasma, T10 [1, 9] | AUC: area under the zero-moment curve [1, 10] | Cmax: relative maximum plasma level [1, 10] | observed Tmax: time required to reach Cmax [1, 10] | mean chromatographic area in plasma, T0.5 [2] | mean chromatographic area in plasma, T1 [2] | mean chromatographic area in plasma, T2 [2] | mean chromatographic area in plasma, T4 [2] | mean chromatographic area in plasma, T6 [2] | mean chromatographic area in plasma, T8 [2] | mean chromatographic area in plasma, T10 [2] | Cmax: relative maximum plasma level [2] | observed Tmax: time required to reach Cmax [2] | also measured
1 | COc1cc(CCCO)ccc1OC1OC(CO)C(O)C(O)C1O (single isomer, unassigned; isomer 2) [dihydroconiferin isomer 2, dihydroconiferin] | 34 | 136 | 83 | 0 | 0 | 0 | 0 | 244 ± 102 relative chromatographic area/h | 136 ± 28 relative chromatographic area | 1 ± 0 h |  |  |  |  |  |  |  |  |  | 
2 | CC1=CC(=O)CC(C)(C)C1(O)/C=C/C(C)=C/COC1OC(CO)C(O)C(O)C1O (single isomer, unassigned; isomer 3) [abscisic alcohol 11-glucoside isomer 3, abscisic alcohol 11-glucoside] | 56 | 258 | 13 | 13 | 0 | 0 | 0 | 267 ± 94 relative chromatographic area/h | 258 ± 95 relative chromatographic area | 1 ± 0 h |  |  |  |  |  |  |  |  |  | 
3 | CC1=CC(=O)CC(C)(C)C1(O)/C=C/C(C)=C/COC1OC(CO)C(O)C(O)C1O (single isomer, unassigned; isomer 2) [abscisic alcohol 11-glucoside isomer 2, abscisic alcohol 11-glucoside] | 111 | 519 | 176 | 23 | 0 | 0 | 0 | 757 ± 174 relative chromatographic area/h | 562 ± 251 relative chromatographic area | 2 ± 1 h |  |  |  |  |  |  |  |  |  | 
4 | pteroside Z [pteroside Z isomer 2] |  |  |  |  |  |  |  |  |  |  |  |  |  |  |  |  |  |  |  | AUC: area under the zero-moment curve ([1]; human, in vivo, po, 500 mg): 310 ± 84 relative chromatographic area/h; Cmax: relative maximum plasma level ([1]; human, in vivo, po, 500 mg): 181 ± 58 relative chromatographic area; observed Tmax: time required to reach Cmax ([1]; human, in vivo, po, 500 mg): 2 ± 1 h; mean chromatographic area in plasma, T0.5 ([1]; in vivo): 28; mean chromatographic area in plasma, T1 ([1]; in vivo): 152; mean chromatographic area in plasma, T2 ([1]; in vivo): 97; mean chromatographic area in plasma, T4 ([1]; in vivo): 18; mean chromatographic area in plasma, T6 ([1]; in vivo): 0; mean chromatographic area in plasma, T8 ([1]; in vivo): 0; mean chromatographic area in plasma, T10 ([1]; in vivo): 0
5 | O=C(O)C=Cc1ccc(OS(=O)(=O)O)c(O)c1 (single isomer, unassigned; isomer 2) [caffeic acid 4-sulfate isomer 2, caffeic acid 4-sulfate] |  |  |  |  |  |  |  |  |  |  |  |  |  |  |  |  |  |  |  | AUC: area under the zero-moment curve ([1]; human, in vivo, po, 500 mg): 1656 ± 1922 relative chromatographic area/h; Cmax: relative maximum plasma level ([1]; human, in vivo, po, 500 mg): 357 ± 268 relative chromatographic area; observed Tmax: time required to reach Cmax ([1]; human, in vivo, po, 500 mg): 3 ± 2 h; mean chromatographic area in plasma, T0.5 ([1]; in vivo): 0; mean chromatographic area in plasma, T1 ([1]; in vivo): 67; mean chromatographic area in plasma, T2 ([1]; in vivo): 277; mean chromatographic area in plasma, T4 ([1]; in vivo): 266; mean chromatographic area in plasma, T6 ([1]; in vivo): 189; mean chromatographic area in plasma, T8 ([1]; in vivo): 129; mean chromatographic area in plasma, T10 ([1]; in vivo): 22
6 | O=C(Oc1cc(O)c2c(c1)O[C@H](c1cc(O)c(O)c(O)c1)[C@H](O)C2)c1cc(O)c(O)c(O)c1 [epigallocatechin 7-O-gallate] |  |  |  |  |  |  |  |  |  |  | 14 | 126 | 12 | 0 | 0 | 0 | 0 | 126 ± 30 relative chromatographic area | 1 ± 0 h | 
7 | O=C(O)CCCCCCCCC(=O)O [decanedioic acid isomer 1, decanedioic acid] |  |  |  |  |  |  |  |  |  |  | 0 | 169 | 232 | 167 | 68 | 11 | 0 | 232 ± 48 relative chromatographic area | 2 ± 0 h | 
8 | Oc1cc(O)c2c(c1)O[C@H](c1ccc(O)c(O)c1)[C@H](O)[C@H]2SCc1ccccc1 [4β-benzylthioepicatechin] |  |  |  |  |  |  |  |  |  |  | 25 | 123 | 151 | 50 | 0 | 0 | 0 | 158 ± 62 relative chromatographic area | 1.7 ± 0.5 h | 
9 | OC[C@H]1O[C@@H](OCc2ccoc2)[C@H](O)[C@@H](O)[C@@H]1O (single isomer, unassigned; isomer 2) [3-furanmethanol glucoside isomer 2, 3-furanmethanol glucoside] |  |  |  |  |  |  |  |  |  |  | 625 | 1234 | 961 | 483 | 250 | 113 | 0 | 1234 ± 489 relative chromatographic area | 1 ± 0 h | 
10 | C/C=C1/[C@H](O[C@@H]2O[C@H](CO)[C@@H](O)[C@H](O)[C@H]2O)OC=C(C(=O)OC)[C@H]1CC(=O)OCCc1ccc(O)c(O)c1 [oleuropein] |  |  |  |  |  |  |  |  |  |  |  |  |  |  |  |  |  |  |  | detection in plasma samples ([2]; in vivo): not detected as being significant in plasma samples
